Entries after “also recorded” stand apart in the source; their conditions may differ.
Columns and labels:
mouse NLRP3 transcript = assay: NLRP3 knock down in mouse J774.1 cells, qRT-PCR; format: cell-based; settings: 7-point titration
Experimental: In silico analysis of the mouse NLRP3 transcript was used to generate 100 candidate NLRP3 ASOs. Mouse J774.1 cells were treated in vitro with either 5 nM or 20 nM of each candidate NLRP3 ASO. NLRP3 expression was measured using qRT-PCR, and about 30 ASOs yielding a knock down of at least 50% were subjected to further analysis. The top 22 performing ASOs were then subjected to a 7-point titration of various concentrations in mouse J774.1 cells, and NLRP3 expression was again measured by qRT-PCR (FIGS. 4A-4V).

NLRP3 pathway = assay: IL-1β secretion in BMDM after ASO-RNAiMAX transfection, LPS and ATP; format: cell-based, mouse; settings: 2 days post transfection, 200 ng/mL LPS 3 h, 5 mM ATP 3 h
Experimental: Bone marrow-derived macrophages (BMDM) can be used to determine whether knock down of NLRP3 has a downstream effect on activation of the NLRP3 pathway (FIGS. 6A-6B). BMDMs were transfected with increasing concentrations of the top five performing mouse ASOs (ASO Nos. 16, 19, 70, 98, and 43) as part of an ASO-RNAiMAX complex. Two days post transfection, the cells BMDM were treated with 200 ng/mL LPS. Three hour later, the BMDM were treated with 5 mM ATP. Three hours after ATP treatment, IL-1 β secretion was measured.

BMDM = assay: Viability of BMDM treated with LPS, ATP and mNLRP3 ASOs; format: cell-based, mouse
mouse NLRP3 reporter = assay: Knock down of HiBit-fused mouse NLRP3 reporter in HEK reporter cell line; format: cell-based; settings: eleven concentrations
Source text: A HEK reporter cell line was transfected with a mouse NLRP3 reporter contruct (FIG. 5A) to assay NLRP3 knockdown at eleven concentrations for the top five performing mouse ASOs (ASO Nos. 16, 19, 70, 98, and 43; FIG. 5B).

[1] = test system: primary human MO macrophages; assay: Cell viability of cultured primary human MO macrophages treated with ASO; format: cell-based
human NLRP3 = assay: IL-1β secretion in cultured primary human MO macrophages after ASO, LPS and ATP; format: cell-based; settings: for IL-1β induction: 50 nM ASO; for IL-1β secretion relative to ASO scramble controls: most donor cell populations
Experimental: The top-performing ASOs were further analyzed using human monocytes isolated from whole blood. Isolated monocytes were cultured for seven to eight days in M-CSF. Cells were then seeded and cultured overnight. […] Three hours later, the cells were treated with 5 mM ATP. Three hours later, IL-1β levels were measured using AlpaLISA. Cholesterol-tagged ASOs were incubated with PTGFRN-overexpressing exosomes to load the ASOs on the surface of the exosomes.

Substance	IC50 (mouse NLRP3 transcript) [nM]	Lowest % value (remaining NLRP3 transcript as a percent of starting levels) (mouse NLRP3 transcript) [%]	IL-1β secretion (NLRP3 pathway)	Viability (BMDM)	Knock down of NLRP3 in the HEK reporter cell line (mouse NLRP3 reporter)	further results
ASO No. 43: mouse NLRP3 ASO, SEQ ID NO: 205, Seq Start 1132 (antisense CGTCAAAGGCCCCTTGTAGC; chemistry not given here)	15.4	48.37	decreased IL-1β secretion at all doses tested	increased viability	dose-dependent knock down	–
ASO No. 19: mouse NLRP3 ASO, SEQ ID NO: 202, Seq Start 318 (antisense GATACAGCCTTTCTCGGGCG; chemistry not given here)	12.7	36.10	decreased IL-1β secretion at all doses tested	increased viability	dose-dependent knock down	–
ASO No. 98: mouse NLRP3 ASO, SEQ ID NO: 204, Seq Start 3761 (antisense CGGGATGGTCAGTTAACAGG; chemistry not given here)	14.7	42.17	decreased IL-1β secretion at all doses tested	increased viability	–	Knock down of NLRP3 in the HEK reporter cell line (mouse NLRP3 reporter; listed as 98): dose-dependent knock down; also recorded: most robust knock down
ASO No. 16: mouse NLRP3 ASO, SEQ ID NO: 201, Seq Start 229 (antisense GCTTGCAACGGACACTCGTC; chemistry not given here)	6.56	36.10	decreased IL-1β secretion at all doses tested	increased viability	dose-dependent knock down	–
ASO 3094: human NLRP3 ASO, SEQ ID NO: 174 (antisense GTCGAAGCAGCACTCATGCG; chemistry not given here)	–	–	–	–	–	Cell viability ([1]; 2 nM ASO): remained stable; Cell viability ([1]; 10 nM ASO): remained stable; Cell viability ([1]; 50 nM ASO): dropped; IL-1β induction (human NLRP3; 2 nM, 10 nM): dose dependent decrease; IL-1β secretion relative to ASO scramble controls (human NLRP3; 2 nM): reduced IL-1β secretion; IL-1β secretion relative to ASO scramble controls (human NLRP3; 10 nM): reduced IL-1β secretion
ASO No. 11: mouse NLRP3 ASO, SEQ ID NO: 206, Seq Start 2961 (antisense GCTTCGTAGATAGAGGTGTG; chemistry not fully specified)	28.2	30.70	–	–	–	–
ASO No. 55: mouse NLRP3 ASO, SEQ ID NO: 210, Seq Start 1740 (antisense CTCGCAGTCCACTTCCTTCT; chemistry not fully specified)	63.1	59.17	–	–	–	–
ASO No. 41: mouse NLRP3 ASO, SEQ ID NO: 208, Seq Start 984 (antisense CTCTCGGCAGTGGATAAAGA; chemistry not fully specified)	57.3	52.30	–	–	–	–
ASO 1664: human NLRP3 ASO, SEQ ID NO: 143 (antisense CGTCAAAGGCACCTTGCAGC; chemistry not given here)	–	–	–	–	–	Cell viability ([1]; 2 nM ASO): remained stable; Cell viability ([1]; 10 nM ASO): remained stable; Cell viability ([1]; 50 nM ASO): dropped; IL-1β induction (human NLRP3; 2 nM, 10 nM): dose dependent decrease; IL-1β secretion relative to ASO scramble controls (human NLRP3; 2 nM): reduced IL-1β secretion; IL-1β secretion relative to ASO scramble controls (human NLRP3; 10 nM): reduced IL-1β secretion
ASO 2672: human NLRP3 ASO, SEQ ID NO: 166 (antisense AGTCCATGGCCCTTTGCACG; chemistry not given here)	–	–	–	–	–	Cell viability ([1]; 2 nM ASO): remained stable; Cell viability ([1]; 10 nM ASO): remained stable; Cell viability ([1]; 50 nM ASO): dropped; IL-1β induction (human NLRP3; 2 nM, 10 nM): dose dependent decrease; IL-1β secretion relative to ASO scramble controls (human NLRP3; 2 nM): reduced IL-1β secretion; IL-1β secretion relative to ASO scramble controls (human NLRP3; 10 nM): reduced IL-1β secretion
ASO No. 21: mouse NLRP3 ASO, SEQ ID NO: 207, Seq Start 392 (antisense TCGCCATTGAAGTCAATCAT; chemistry not fully specified)	30.1	33.07	–	–	–	–
ASO No. 48: mouse NLRP3 ASO, SEQ ID NO: 209, Seq Start 1262 (antisense TCCAAGGCTACCGGCCTCGT; chemistry not fully specified)	60.6	65.00	–	–	–	–
ASO No. 70: mouse NLRP3 ASO, SEQ ID NO: 203, Seq Start 2235 (antisense CGTTTTGACCCTATGACAGT; chemistry not given here)	13.4	30.43	decreased IL-1β secretion at all doses tested	increased viability	dose-dependent knock down	–
